Data published in patent publication US20220185793A1, “COMPOUNDS FOR THE TREATMENT OF ONCOVIRUS INDUCED CANCER AND METHODS OF USE THEREOF” (Cellestia Biotech AG, priority 2019, published 2022).

How the values were obtained:
NOTCH target gene HES1 = NOTCH target gene HES1 downregulation in RPMI 8402 cells; format: cell-based, human; parameters: Percentage inhibition of NOTCH target gene HES1: concentration or dose not given beside the values; conditions: RPMI 8402 cells (NOTCH1 positive, EBV negative)
Method: (§1) Total RNA was extracted from cells using TRIzol® extraction kit (Invitrogen). Briefly, 1×10^6 cells were washed with ice-cold 1× PBS and lysed in 1 ml of TRIzol® solution for 5 minutes at room temperature to dissociate nucleoprotein complexes. Lysed cells were then treated with 200 μl of chloroform and shaked vigorously for 15-30 seconds and incubated at room temperature for 2-3 minutes. The samples were centrifuged at 14000 rpm using Eppendorf table top centrifuge for 10 minutes at 4° C. Following centrifugation, upper aqueous phase was transferred to new eppendorf tubes. To precipitate total RNA 500 μl of […] was added to the separated aqueous phase and incubated at room temperature for 10 minutes. A RNA pellet was obtained by centrifuging the samples at 4° C. for 10 minutes. RNA pellet obtained was washed with 1 ml ice cold 75% ethanol and spun down at 14000 rpm at 4° C. RNA pellet was dried off of excess of ethanol and resuspended in 40 IA DPEC water.
(§2) Total RNA extracted from the cell was used to synthesize cDNA by reverse transcription reaction. Reverse transcription was performed according to one of the two following protocols.
(§3) QRT-PCR was carried out using 7900 HT Fast Real-Time PCR system (Applied Biosystems) or QuantStudio 3 system (ThermoFisher). Briefly, 12.5 ng of template cDNA was used with a primer concentration of 0.5 μM each and lx SYBR Green dye in a final volume of 10 μL in a 96 well or 384 well plate format.
(§4) To determine the ability of compounds to downregulate EBV driven gene expression, HG-3 cells were treated with selected compounds and percentage inhibition of EBV target genes was determined by quantitative PCR. […] To further determine the anti-oncoviral specificity of compounds, these compounds were tested for their ability to downregulate a NOTCH target gene HES1 in a NOTCH1 positive (EBV negative) human leukemic cell line RPMI8402.

[1] = test system: EBV positive human lymphoma HG-3 cells; test: Alamar blue proliferation assay in HG-3 cells; format: cell-based; conditions: 72 hours
Method: (§5) One million human EBV positive lymphoma cell lines HG3 and LCL070903 (Rosén et al., 2012) were cultured in RPMI1640 media supplemented with 10% FCS. […] Following treatment cells were harvested and washed with 1× PBS. Total RNA was extracted as described below.
(§6) Alamarblue® and PrestoBlue proliferation assays were performed to determine the growth kinetics of EBV inhibitor treated cells. Alamar blue® and PrestoBlue consists of a cell permeable substrate resazurin. In metabolically active and proliferating cells, resazurin is converted to resorufin due to an intrinsic reducing power of live cells and produces a red fluorescence. Therefore production of resorufin serves as an indicator of the viability of the cell population.
(§7) Proliferation assays were performed by seeding 5000 cells/well in a 96 well plate. […] Each concentration was tested in 4 replicates. To determine the growth kinetics, 10 μl of Alamar blue® or PrestoBlue (Invitrogen) was added to each well and incubated for 4 hours. Readout was taken using Tecan F500 (Tecan) multiplate reader or Varioskan LUX (ThermoFisher) multiplate reader.
In order to determine anti-cancer activity of compounds in oncoviral driven cells, an EBV infected human Chronic Lymphocytic Leukemia cell line HG-3 was used (Rosen et al., 2012). In brief, HG-3 cells were plated in a 96 well plate and treated with an increasing concentration of compounds.

CD21 [2] = test: EBV target gene downregulation (qPCR) in HG-3 cells: CD21; format: cell-based; conditions: Homo sapiens, mRNA by qPCR, Table 2
Method: (§8) One million human EBV positive lymphoma cell lines HG3 and LCL070903 (Rosén et al., 2012) were cultured in RPMI1640 media supplemented with 10% FCS. For RNA expression analysis cells were treated with compounds at 10 μM concentration and for proliferation assay cells were treated at a concentration range of 0.01-100 μM. Following treatment cells were harvested and washed with 1× PBS. Total RNA was extracted as described below.
(§9) Total RNA was extracted from cells using TRIzol® extraction kit (Invitrogen). Briefly, 1×10^6 cells were washed with ice-cold 1× PBS and lysed in 1 ml of TRIzol® solution for 5 minutes at room temperature to dissociate nucleoprotein complexes. Lysed cells were then treated with 200 μl of chloroform and shaked vigorously for 15-30 seconds and incubated at room temperature for 2-3 minutes. […]
(§10) In first protocol, SuperScript™ RT (Invitrogen) was used for reverse transcription reaction. RNA concentration was measured using NanoDrop®ND-1000 spectrophotometer (Witec AG) and 500 ng of total RNA was mixed with a 10 mM mix of dNTPs and 100 ng of random primers. […]
(§11) In second protocol, reverse transcription was performed using PrimeScript RT Master Mix (Takara). RNA concentration was measured using NanoDrop®ND-1000 spectrophotometer (Witec AG) and 1 μg of total RNA was mixed with 4 μL 5X PrimeScript RT Master Mix in a total reaction volume of 20 μL. […]

BATF1 = test: EBV target gene downregulation (qPCR) in HG-3 cells: BATF1; format: cell-based; conditions: Homo sapiens, mRNA by qPCR, Table 2
Method: as §8, §9, §10, §11

LMP1 = test: EBV target gene downregulation (qPCR) in LCL070903 cells: LMP1; format: cell-based; conditions: Homo sapiens, mRNA by qPCR, Table 6
Method: as §8, §9, §10, §11

EBNA2 [3] = test: EBV target gene downregulation (qPCR) in LCL070903 cells: EBNA2; format: cell-based; conditions: Homo sapiens, mRNA by qPCR, Table 6
Method: as §8, §1, §2
(§12) In first protocol, SuperScript™ RT (Invitrogen) was used for reverse transcription reaction. RNA concentration was measured using NanoDrop®ND-1000 spectrophotometer (Witec AG) and 500 ng of total RNA was mixed with a 10 mM mix of dNTPs and 100 ng of random primers. The reaction mix was incubated at 65° C. for 5 minutes and quickly incubated on ice for 1 minute. Following incubation on ice, 5× first strand buffer and 0.1M DTT were added and mix was incubated for 2 minutes at 25° C. To start the reverse transcription reaction, 200U of SuperScrip™ II RT was added to the reaction mix and incubated at 42° C. for 50 minutes. The reaction was stopped by incubating the reaction mix at 75° C. for 15 minutes.
(§13) In second protocol, reverse transcription was performed using PrimeScript RT Master Mix (Takara). RNA concentration was measured using NanoDrop®ND-1000 spectrophotometer (Witec AG) and 1 μg of total RNA was mixed with 4 μL 5X PrimeScript RT Master Mix in a total reaction volume of 20 μL. The reaction mix was incubated at 37° C. for 15 minutes followed by heat inactivation at 85° C. for 5 seconds.
as §3
(§14) Upon infection of human cells, EBV is known to induce cancerous transformation of cells via upregulation of host as well as viral genes (e.g LMP1, EBNA2, BATF1, BMI1 and CD21). To determine the ability of compounds to downregulate EBV driven gene expression, HG-3 and LCL070903 cells were treated with selected compounds and percentage inhibition of EBV target genes was determined by quantitative PCR. As shown in Table 5 and Table 6, compounds down regulate EBV target genes such as BMI1 in HG-3 and LCL070903 cells, respectively (FIGS. 3 and 4).

CD21 [4] = test: EBV target gene downregulation (qPCR) in LCL070903 cells: CD21; format: cell-based; conditions: Homo sapiens, mRNA by qPCR, Table 6
Method: as §8
as §1, with “A RNA pellet was obtained by centrifuging the samples at 4° C. for 10 minutes. RNA pellet obtained was washed with 1 ml ice cold 75% ethanol and spun down at 14000 rpm at 4° C. RNA pellet was dried off of excess of ethanol and resuspended in 40 IA DPEC water.” left out
as §10, §11
as §14, with “As shown in Table 5 and Table 6, compounds down regulate EBV target genes such as BMI1 in HG-3 and LCL070903 cells, respectively (FIGS. 3 and 4).” left out

BMI1 (EBV target gene) [5] = test: EBV target gene downregulation (qPCR) in LCL070903 cells: BMI1; format: cell-based, human; conditions: 48 hours; for potency in downregulating EBV pathway (BMI1) compared with 6-(4-tert-butylphenoxy)pyridin-3-amine (in words): 10 μM, qRT-PCR, FIG. 3; for inhibition at 10 µM: Homo sapiens, mRNA by qPCR, Table 6
Method: EBV positive human B LCL070903 cells were treated with 10 μM of the mentioned compounds for 48 hours. Following treatment, total RNA was extracted and mRNA expression analysed by qRT-PCR.
as §8, §1, §2, §12, §13, §3, §14

[6] = test system: EBV positive human B HG-3 cells; test: PrestoBlue proliferation assay in HG-3 cells; format: cell-based; conditions: 72 hours; for anti-proliferative effect on HG-3 cells (in words): PrestoBlue, FIG. 2 and Table 4; for IC50: Homo sapiens, concentration range 0.03-100 μM, PrestoBlue assay, read-out: Anti-proliferative IC50 values (μM) in HG-3 cells
Method: as §5, §6, §7
In brief, HG-3 cells were plated in a 96 well plate and treated with an increasing concentration of compounds.

BMI1 (EBV target gene) [7] = test: EBV target gene downregulation (qPCR) in HG-3 cells: BMI1; format: cell-based, human; conditions: 48 hours; for potency in downregulating EBV pathway (BMI1) compared with 6-(4-tert-butylphenoxy)pyridin-3-amine (in words): 10 μM, qRT-PCR, FIG. 4; for inhibition at 10 µM: Homo sapiens, mRNA by qPCR, Table 5
Method: EBV positive human B HG-3 cells were treated with 10 μM of the mentioned compounds for 48 hours. Following treatment, total RNA was extracted and mRNA expression analysed by qRT-PCR.
as §8, §1, §2, §12, §13, §3, §14

EBNA2 [8] = test: EBV target gene downregulation (qPCR) in HG-3 cells: EBNA2; format: cell-based; conditions: Homo sapiens, mRNA by qPCR, Table 5
Method: as §8, §1, §2, §12, §13, §3, §4, §14

| IC50 ([1]; Homo sapiens, concentration range 0.01-10 μM, Alamar blue assay, read-out: Anti-proliferative IC50 values) [nM] | SMILES | Percentage inhibition of NOTCH target gene HES1 (NOTCH target gene HES1) [%] | downregulation of NOTCH target gene HES1 (in words) (NOTCH target gene HES1) | anti-proliferative effect on HG-3 cells (in words) ([1]; Alamar blue, FIG. 1 and Table 1) | inhibition at 10 µM (CD21 [2]) [%] | inhibition at 10 µM (BATF1) [%] | inhibition at 10 µM (LMP1) [%] | inhibition at 10 µM (EBNA2 [3]) [%] | inhibition at 10 µM (CD21 [4]) [%] | potency in downregulating EBV pathway (BMI1) compared with 6-(4-tert-butylphenoxy)pyridin-3-amine (in words) (BMI1 (EBV target gene) [5]) | inhibition at 10 µM (BMI1 (EBV target gene) [5]) [%] | anti-proliferative effect on HG-3 cells (in words) [6] | IC50 [6] [µM] | potency in downregulating EBV pathway (BMI1) compared with 6-(4-tert-butylphenoxy)pyridin-3-amine (in words) (BMI1 (EBV target gene) [7]) | inhibition at 10 µM (BMI1 (EBV target gene) [7]) [%] | inhibition at 10 µM (EBNA2 [8]) [%] |
| --- | --- | --- | --- | --- | --- | --- | --- | --- | --- | --- | --- | --- | --- | --- | --- | --- |
| 2200 | CC(C)(C)c1ccc(Oc2ccc(NCc3cccnc3)cn2)cc1 [Example 2, 6-(4-(tert-Butyl)phenoxy)-N-(pyridin-3-ylmethyl)pyridin-3-amine] | 0 | do not modulate expression of this gene | demonstrate anti-proliferative effect | > 90 | > 90 |  |  |  |  |  |  |  |  |  |  |
|  | c1ccc(-c2ccc(Oc3ccc(NCc4cccnc4)cn3)cn2)cc1 [Example 21, 6-((6-Phenylpyridin-3-yl)oxy)-N-(pyridin-3-ylmethyl)pyridin-3-amine] |  |  |  |  |  | 12 | 50 | 9 | enhanced potency | 51 | demonstrate anti-proliferative effect | 3.8 | enhanced potency | 47 |  |
|  | Cc1ccccc1-c1ccc(Oc2ccc(NCc3cccnc3)cc2)cc1C [Example 28, 4-((2,2′-Dimethyl-[1,1′-biphenyl]-4-yl)oxy)-N-(pyridin-3-ylmethy)aniline] |  |  |  |  |  | 24 | 43 | 1 | enhanced potency | 61 | demonstrate anti-proliferative effect | 1.5 | enhanced potency | 51 | 36 |
